What was measured:
[1] = biological target: T1, VlmD (Streptomyces viridifaciens, UniProt Q84F32); test: HPLC (OPA derivatization) of iso-butylamine formed; LC-MS confirmation; format: biochemical; settings: 1 mM substrate, 0.1 mM PLP, 150 ug/mL enzyme, 50 mM potassium phosphate pH 7.5, 37 °C, 2 h
T1 construct: N-terminal His6 tag, codon-optimised gene in pET-22b(+), E. coli BL21(DE3), Talon resin

[2] = biological target: T1, VlmD; test: HPLC (OPA derivatization) of n-butylamine formed; LC-MS confirmation; format: biochemical; settings: 1 mM substrate, 0.1 mM PLP, 150 ug/mL enzyme, 50 mM potassium phosphate pH 7.5, 37 °C, 2 h

T1 sequence (Q84F32 entry or part of it): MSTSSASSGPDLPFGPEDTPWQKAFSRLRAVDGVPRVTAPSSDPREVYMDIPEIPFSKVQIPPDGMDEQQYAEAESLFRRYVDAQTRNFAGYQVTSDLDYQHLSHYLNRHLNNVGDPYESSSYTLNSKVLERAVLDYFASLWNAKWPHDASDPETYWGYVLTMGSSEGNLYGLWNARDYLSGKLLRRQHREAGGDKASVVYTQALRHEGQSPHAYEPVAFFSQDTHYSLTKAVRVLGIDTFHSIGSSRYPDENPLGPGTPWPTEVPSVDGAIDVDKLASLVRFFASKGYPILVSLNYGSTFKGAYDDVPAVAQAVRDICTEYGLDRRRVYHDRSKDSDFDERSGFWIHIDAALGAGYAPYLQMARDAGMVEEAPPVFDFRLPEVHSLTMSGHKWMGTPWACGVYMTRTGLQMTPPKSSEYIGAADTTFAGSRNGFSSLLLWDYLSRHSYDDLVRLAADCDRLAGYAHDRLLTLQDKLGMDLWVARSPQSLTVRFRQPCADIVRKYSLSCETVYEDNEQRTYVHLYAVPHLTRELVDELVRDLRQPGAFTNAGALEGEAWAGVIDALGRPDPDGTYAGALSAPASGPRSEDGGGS

Row | SMILES | HPLC (OPA derivatization) of iso-butylamine formed; LC-MS confirmation [1] | HPLC (OPA derivatization) of n-butylamine formed; LC-MS confirmation [2]
1 | CC(C)[C@H](N)C(=O)O [L-valine] | VlmD consistently showed activities toward L-valine, L-leucine, and L-isoleucine as in the previous study | 
2 | CCC[C@H](N)C(=O)O [L-norvaline] |  | VlmD showed relatively high activity toward L-2-aminobutyrate, L-norvaline, L-valine

— article PMC7794544, “Microbial production of multiple short-chain primary amines via retrobiosynthesis” (Nature Communications, 2021)
